Experimental data taken from ChEMBL document CHEMBL1132103, “Acylcarnitine analogues as topical, microbicidal spermicides” (1999).
≈ marks a conversion by molar mass, not a printed value. Calls of active or inactive are those of the source. No cut-off for these calls is given here.

Key:
[1] = system: Human immunodeficiency virus 1; test: In vitro inhibition of HIV-1 (RF strain) using cell-free inactivation assay at concentration of 0.32 mg/mL; format: functional, organism-based
[2] = system: Human immunodeficiency virus 1; test: In vitro inhibition of HIV-1 (RF strain) using cell-free inactivation assay at concentration of 10 mg/mL; format: functional, organism-based
[3] = system: Human immunodeficiency virus 1; test: In vitro inhibition of HIV-1 (RF strain) using cell-free inactivation assay at concentration of 0.1 mg/mL; format: functional, organism-based
[4] = system: Human immunodeficiency virus 1; test: In vitro inhibition of HIV-1 (RF strain) using cell-free inactivation assay at concentration of 0.032 mg/mL; format: functional, organism-based
Candida albicans = test: Minimum inhibitory concentration required for growth inhibition of Candida albicans; format: functional
[5] = system: Human immunodeficiency virus 1; test: In vitro inhibition of HIV-1 (RF strain) using cell-free inactivation assay at concentration of 3.2 mg/mL; format: functional, organism-based
Homo sapiens [6] = species on record: Homo sapiens; test: In vitro spermicidal activity using spermicidal dilution at 27.2 +/- 2.3 mg/mL in the Sander-Cramer test; format: functional; conditions: read-out: MEC
[7] = system: Human immunodeficiency virus 1; test: In vitro inhibition of HIV-1 (RF strain) using cell-free inactivation assay at concentration of 1.0 mg/mL; format: functional, organism-based
Homo sapiens [8] = species on record: Homo sapiens; test: In vitro spermicidal activity using spermicidal dilution at 102.4 +/- 13.5 mg/mL in the Sander-Cramer test; format: functional; conditions: read-out: MEC
Homo sapiens [9] = species on record: Homo sapiens; test: In vitro spermicidal activity using spermicidal dilution at 7.6 +/- 0.4 mg/mL in the Sander-Cramer test; format: functional; conditions: read-out: MEC
[10] = system: Human immunodeficiency virus 1; test: In vitro inhibition of HIV-1 (RF strain) using cell-free inactivation assay at concentration of 0.032 mg/mL; NA: Not active; format: functional, organism-based
[11] = system: Human immunodeficiency virus 1; test: In vitro inhibition of HIV-1 (RF strain) using cell-free inactivation assay at concentration of 0.1 mg/mL; NA: Not active; format: functional, organism-based
Homo sapiens [12] = species on record: Homo sapiens; test: In vitro spermicidal activity using spermicidal dilution at 48.0 +/-5.1 mg/mL in the Sander-Cramer test; format: functional; conditions: read-out: MEC
Homo sapiens [13] = species on record: Homo sapiens; test: In vitro spermicidal activity using spermicidal dilution at 134.4 +/- 14.2 mg/mL in the Sander-Cramer test; format: functional; conditions: read-out: MEC
Homo sapiens [14] = species on record: Homo sapiens; test: In vitro spermicidal activity using spermicidal dilution at 4.8 +/- 0.5 mg/mL in the Sander-Cramer test; format: functional; conditions: read-out: MEC

## CCCCCCCCCCCC[C@@]1(O)C[N+](C)(C)C[C@@H](CC(=O)[O-])O1
[1]
  Activity: 2
[2]
  Activity: > 4
[3]
  Activity: 0.3
[4]
  Activity: 0
Candida albicans
  MIC: 80 µg/mL (≈ 224 µM)
[5]
  Activity: > 3.5
Homo sapiens [6]
  minimal effective concentration: 407 µg/mL
[7]
  Activity: 2.8

## CCCCCCCCCCCCCC[C@@]1(O)C[N+](C)(C)C[C@@H](CC(=O)[O-])O1
[1]
  Activity: 2.8
[2]
  Activity: > 4
[3]
  Activity: 1.5
[4]
  Activity: 0.5
Candida albicans
  MIC: 10 µg/mL (≈ 25.9 µM)
[5]
  Activity: > 4
Homo sapiens [8]
  minimal effective concentration: 121 µg/mL
[7]
  Activity: 3.5

## CCCCCCCCCCC[C@@]1(O)C[N+](C)(C)C[C@@H](CC(=O)[O-])O1
[1]
  Activity: 0.8
[2]
  Activity: 4.7
Homo sapiens [9]
  minimal effective concentration: 1400 µg/mL
Candida albicans
  MIC: > 100 µg/mL
[10]
  Activity: inactive
[5]
  Activity: 2.7
[7]
  Activity: 2
[11]
  Activity: inactive

## CCCCCCCCCCCCC[C@@]1(O)C[N+](C)(C)C[C@@H](CC(=O)[O-])O1
[1]
  Activity: 2.7
[2]
  Activity: 3.5
[3]
  Activity: 1.5
[4]
  Activity: 0.5
Candida albicans
  MIC: 40 µg/mL (≈ 108 µM)
[5]
  Activity: 3.5
Homo sapiens [12]
  minimal effective concentration: 235 µg/mL
[7]
  Activity: 3.3

## CCCCCCCCCCCCCCC[C@@]1(O)C[N+](C)(C)C[C@@H](CC(=O)[O-])O1 [HEMIACYLCARNITINIUM]
[1]
  Activity: 2.7
[2]
  Activity: > 4
[3]
  Activity: 1.5
[4]
  Activity: 0.3
Candida albicans
  MIC: 2 µg/mL (≈ 5 µM)
[5]
  Activity: 3.8
Homo sapiens [13]
  minimal effective concentration: 109 µg/mL
[7]
  Activity: 3.2

## CCCCCCCCCC[C@@]1(O)C[N+](C)(C)C[C@@H](CC(=O)[O-])O1
[1]
  Activity: 0.8
[2]
  Activity: > 4
Candida albicans
  MIC: > 100 µg/mL
[10]
  Activity: inactive
[5]
  Activity: 2.8
[7]
  Activity: 1
[11]
  Activity: inactive
Homo sapiens [14]
  minimal effective concentration: 2300 µg/mL
